Data set [1] has as its system DH10B E. coli cells. In words: Qualitative assay for cellular uptake of NH2Y by LC-MS. Type of data set: cell-based. The settings on record: 1 mM NH2Y with or without 0.1 mM DTT. As for the experimental part:
Qualitative assay for cellular uptake of NH2Y by LC-MS. The uptake assay was performed as previously described with minor modifications.^48 DH10B E. coli cells were grown to saturation at 37° C. in GMML in the presence of 1 mM NH2Y and 0.1 mM DTT and subsequently harvested and lysed as outlined previously. Chromatography of the crude extract was performed on a Zorbax SB-C18 (5 μm, 4.6×150 mm) column with a linear gradient from 5% to 25% MeCN in 0.1% TFA solution over 8 min at 0.5 mL/min. Under these conditions, NH2Y elutes at ˜13% MeCN. For HPLC-ESI-MS analysis, NH2Y standard solutions were prepared in water.
(§1) Toxicity and uptake of NH2Y. Evolution of an NH2Y-specific aminoacyl-tRNA synthetase (RS) requires that NH2Y is taken up by E. coli, that it is not toxic, and that it is not incorporated into proteins by any endogenous RSs. All three requirements were met by NH2Y. […] The presence of DTT however, caused cells to grow at a rate 25-35% more slowly than those in the presence of only NH2Y or absence of NH2Y/DTT.

Data set [2] has as its system DH10B E. coli cells. Description: Toxicity of NH2Y: growth of E. coli in GMML medium and on agar plates. Type of data set: cell-based.
Excerpt: as §1

For data set [3] the following is noted: cited from earlier work.
In data set [4] the target is T1, E. coli ribonucleotide reductase (RNR) (Escherichia coli, UniProt P00452).
T1 construct: made in house; host or cells: E. coli DH10B (NH2Y-α2s)
The settings on record: inactivation of wt α2β2 by N3ADP/dGTP; 20 s time scale; cited from earlier work.

The text below walks through data of patent publication US8673591B2, “Genetic incorporation of 3-aminotyrosine into reductases” (The Scripps Research Institute, priority 2007, dated 2014).

Like-named read-outs stand apart in the source and are kept apart here.

For the compound `Nc1cc(C[C@H](N)C(=O)O)ccc1O` [NH2Y, 3-aminotyrosine], in the data set with DH10B E. coli cells [1], the “cellular uptake (HPLC and ESI-MS of cell extracts)” value was “observed in all cell extracts”. For the same compound, the “growth rates in the presence of substance” value in the data set on DH10B E. coli cells [2] (NH2Y 1 mM, GMML medium) is “not significantly affected”. In data set [3] (pH 7.0), the reduction potential was 0.64 V and the “reduction potential lower than that of Y” value is 0.19 V. In addition, in data set [3] (pH 7), the “reduction potential lower than that of Y” value is on record as 190 mV.

As to `[N-]=[N+]=N[C@@H]1[C@H](O)[C@@H](COP(=O)(O)OP(=O)(O)O)O[C@H]1n1cnc2c(N)ncnc21` [N3ADP, 2′-Azido-2′-deoxyadenosine-5′-diphosphate], the “initial Y122• lost (equivalent amount of N• formed)” value in data set [4] is 50-60%.

With `O[C@H](CS)[C@H](O)CS` (racemic) [DTT, DL-dithiothreitol], the slower growth rate with DH10B E. coli cells [2] (Escherichia coli, 0.1 mM) is recorded as 25-35%.
